Where “and” joins values, the source holds several entries; their conditions need not be identical. Equal values may be shown once.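 Assay format: 96-well plates, 48-hour exposure. Abbreviation: GI50, concentration required for 50% inhibition of growth. TGI marks complete inhibition of growth.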

Among the test systems are SNB-19 CNS; HCT-15 colon; UO-31 renal; OVCAR-8 ovarian; SW-620 colon; SK-OV-3 ovarian; A549 NSCLC; HOP-62 NSCLC; MALME-3M melanoma; MCF7 breast.
Common to all, as to assay: NCI tumour cell line growth inhibition, 48 h

Turning to `Cn1cc(C2=C(c3cccc(NCC(O)CO)c3)C(=O)NC2=O)c2cc(Cl)ccc21` (centres undefined), the GI50 in the assay with SNB-19 CNS is 7.28 µM; in the assay on HCT-15 colon, 5.97 µM; in the assay on UO-31 renal, 5.99 µM; in the assay on OVCAR-8 ovarian, 5.08 µM; with SW-620 colon it was 4.26 µM; with SK-OV-3 ovarian, 4.78 µM. Also, the GI50 in the assay with A549 NSCLC is 4.74 µM; in the assay with HOP-62 NSCLC, 4.9 µM; in the assay on MALME-3M melanoma, 7.84 µM; in the assay with MCF7 breast, 0.356 µM. Also, the TGI in the assay on SNB-19 CNS was 19.6 µM; in the assay with HCT-15 colon, above 25 µM; in the assay with UO-31 renal it was 17.6 µM; in the assay with OVCAR-8 ovarian it was 17.4 µM; in the assay on SW-620 colon, 15.7 µM; in the assay on SK-OV-3 ovarian, above 23 µM. Besides, the TGI was determined as 17.6 µM in the assay with A549 NSCLC, 18 µM in the assay on HOP-62 NSCLC, 14.8 µM with MALME-3M melanoma and 12.6 µM in the assay on MCF7 breast.
For `Cc1cc(Cl)ccc1Nc1nc(C(F)(F)F)ccc1C(=O)N/N=C/c1ccc(F)cc1`, the GI50 was 2.11 µM in the assay on SNB-19 CNS; 0.621 µM in the assay on HCT-15 colon; 1.71 µM in the assay with UO-31 renal; 1.48 µM in the assay with OVCAR-8 ovarian; 2.06 µM with SW-620 colon; 1.34 µM in the assay on SK-OV-3 ovarian. Besides, the GI50 with A549 NSCLC was 2.08 µM; in the assay with HOP-62 NSCLC, 1.68 µM; in the assay on MALME-3M melanoma, 1.11 µM; with MCF7 breast, 2.64 µM. Besides, the TGI in the assay with SNB-19 CNS was found to be 12 µM; with HCT-15 colon it was 12.4 µM; in the assay on UO-31 renal it was 5.35 µM; in the assay with OVCAR-8 ovarian it was 6.33 µM; in the assay on SW-620 colon, 13.5 µM; in the assay with SK-OV-3 ovarian it was 6.58 µM. Moreover, the TGI with A549 NSCLC came to 6.01 µM; in the assay with HOP-62 NSCLC, 6.65 µM; in the assay on MALME-3M melanoma, 4.7 µM; in the assay with MCF7 breast it was 10.5 µM.
Turning to `N=c1c2c(=O)n3c(nc2nc2sc4ccc(Cl)cc4n12)-c1ccccc1Sc1ccccc1-3`, the GI50 in the assay on SNB-19 CNS was 4.31 µM; in the assay with HCT-15 colon, 2.96 µM; with UO-31 renal, 2.29 µM; in the assay on OVCAR-8 ovarian, 2.95 µM; with SW-620 colon, 3.05 µM; in the assay with SK-OV-3 ovarian it was 3.7 µM. Also, the GI50 with A549 NSCLC is 1.98 µM; in the assay on HOP-62 NSCLC, 3.64 µM; in the assay on MALME-3M melanoma it was 2.15 µM; with MCF7 breast it was 3.06 µM. Also, the TGI in the assay with SNB-19 CNS was found to be 20.4 µM; in the assay with HCT-15 colon it was 14.5 µM; in the assay with UO-31 renal it was 9.97 µM; in the assay with OVCAR-8 ovarian it was 11.8 µM; with SW-620 colon, 16.1 µM; in the assay on SK-OV-3 ovarian it was 25.2 µM. For the same compound, the TGI in the assay with A549 NSCLC is 12.5 µM; with HOP-62 NSCLC it was 28.3 µM; with MALME-3M melanoma, 9.21 µM; in the assay with MCF7 breast it was 21.8 µM.
For the compound `COc1ccc(-c2oncc2-c2cc(OC)c3c(c2)OCO3)cc1`, the GI50 is 5.25 µM in the assay with SNB-19 CNS; 1.2 µM in the assay on HCT-15 colon; 4.46 µM with UO-31 renal; 4.86 µM in the assay on OVCAR-8 ovarian; 1.18 µM in the assay with SW-620 colon; 3.76 µM in the assay with SK-OV-3 ovarian. Further, the GI50 is 3.58 µM with A549 NSCLC, 3.91 µM in the assay with HOP-62 NSCLC, above 100 µM with MALME-3M melanoma and 1.59 µM in the assay on MCF7 breast. The TGI is above 100 µM in the assay on SNB-19 CNS; above 100 µM in the assay with HCT-15 colon; 55.9 µM with UO-31 renal; above 100 µM in the assay on OVCAR-8 ovarian; above 100 µM in the assay with SW-620 colon; above 40.4 µM in the assay with SK-OV-3 ovarian. Moreover, the TGI in the assay with A549 NSCLC is above 100 µM; in the assay with HOP-62 NSCLC it was above 71.1 µM; in the assay with MALME-3M melanoma it was above 100 µM; in the assay on MCF7 breast it was above 100 µM.
As for `CCOCC[P+](c1ccccc1)(c1ccccc1)c1ccccc1`, the GI50 in the assay on SNB-19 CNS was 21.3 µM; in the assay with HCT-15 colon, 73.8 µM; with UO-31 renal, 34.8 µM; in the assay with OVCAR-8 ovarian, 22.2 µM; with SW-620 colon it was 25.2 µM; in the assay on SK-OV-3 ovarian it was 20.1 µM. In addition, the GI50 in the assay on A549 NSCLC was 16.4 µM; in the assay with HOP-62 NSCLC it was 29.7 µM; with MALME-3M melanoma, 10.3 µM; in the assay on MCF7 breast, 13.7 µM. Further, the TGI in the assay on SNB-19 CNS is above 100 µM; in the assay with HCT-15 colon, above 100 µM; with UO-31 renal, above 100 µM; in the assay on OVCAR-8 ovarian, above 100 µM; in the assay with SW-620 colon, above 100 µM; in the assay with SK-OV-3 ovarian it was 79.8 µM. In addition, the TGI is 87.8 µM with A549 NSCLC, above 100 µM with HOP-62 NSCLC, 61.4 µM with MALME-3M melanoma and 66.4 µM in the assay with MCF7 breast.
Regarding `CNC(=S)N/N=C(/C)CCC/C(C)=N/NC(=S)NC`, the TGI in the assay on SNB-19 CNS, in the assay with HCT-15 colon, in the assay on UO-31 renal, in the assay with OVCAR-8 ovarian, in the assay on SW-620 colon and with SK-OV-3 ovarian was above 100 µM throughout. Moreover, the TGI with A549 NSCLC was above 100 µM; in the assay on HOP-62 NSCLC, above 100 µM; in the assay with MALME-3M melanoma, above 100 µM; in the assay with MCF7 breast it was 0.563 µM.
As to `O=C1/C(=c2\c3ccccc3n3c(=O)c4ccccc4nc23)Nc2ccccc21`, the TGI with SNB-19 CNS, in the assay on HCT-15 colon, in the assay with UO-31 renal, in the assay on OVCAR-8 ovarian, in the assay on SW-620 colon and in the assay on SK-OV-3 ovarian was above 100 µM throughout. Besides, the TGI in the assay on A549 NSCLC, in the assay on HOP-62 NSCLC, with MALME-3M melanoma and with MCF7 breast was above 100 µM each time.
Turning to `COc1cc([C@@H]2c3cc4c(cc3[C@H](O)[C@H]3COC(=O)[C@@H]23)OCO4)cc(OC)c1OC`, the GI50 in the assay on SNB-19 CNS is 0.462 µM and 0.231 µM; with HCT-15 colon, 0.415 µM and 0.327 µM; with UO-31 renal, 0.48 µM and 0.602 µM; in the assay with OVCAR-8 ovarian, 0.707 µM and 0.397 µM; with SW-620 colon, 0.409 µM and 0.219 µM; in the assay with SK-OV-3 ovarian it was 0.529 µM and 0.301 µM. The GI50 in the assay on A549 NSCLC was 0.732 µM and 0.333 µM; with HOP-62 NSCLC it was 0.533 µM and 0.226 µM; in the assay with MALME-3M melanoma it was 1.11 µM and 0.169 µM; in the assay on MCF7 breast, 0.321 µM and 0.0612 µM. Also, the TGI with SNB-19 CNS, with HCT-15 colon, in the assay on UO-31 renal, in the assay with OVCAR-8 ovarian, in the assay with SW-620 colon and with A549 NSCLC was above 100 µM in each case. Also, the TGI with HOP-62 NSCLC, in the assay with MALME-3M melanoma and in the assay with MCF7 breast was above 100 µM throughout.
Consider `Cc1ccc(S(=O)(=O)C2=C3C(=C(c4ccccc4)c4ccccc43)CN(S(=O)(=O)c3ccc(C)cc3)C2)cc1`, for which the GI50 was 12.9 µM in the assay on SNB-19 CNS; 2.32 µM in the assay with HCT-15 colon; 1.95 µM in the assay with UO-31 renal; 2.65 µM in the assay on OVCAR-8 ovarian; 0.636 µM with SW-620 colon; above 100 µM with SK-OV-3 ovarian. The GI50 with A549 NSCLC is above 100 µM; in the assay with HOP-62 NSCLC it was 15.4 µM; with MALME-3M melanoma, 9.71 µM; in the assay on MCF7 breast, 2.43 µM. Besides, the TGI was 55.7 µM in the assay with SNB-19 CNS; 16.3 µM with HCT-15 colon; 18.2 µM with UO-31 renal; 38.1 µM in the assay on OVCAR-8 ovarian; 3.4 µM with SW-620 colon; above 100 µM in the assay with SK-OV-3 ovarian. The TGI was above 100 µM in the assay on A549 NSCLC, 51.9 µM in the assay on HOP-62 NSCLC, 29.2 µM in the assay on MALME-3M melanoma and above 100 µM in the assay with MCF7 breast.
In the case of `COc1cc2c3c(n(CCCN4CCOCC4)c(=O)c2cc1OC)-c1cc2c(cc1C3=O)OCO2`, the GI50 with SNB-19 CNS was above 38.6 µM; in the assay on HCT-15 colon, 17.4 µM; in the assay with UO-31 renal, 5.87 µM; in the assay on OVCAR-8 ovarian, 3.62 µM; in the assay with SW-620 colon, 8.94 µM; in the assay with SK-OV-3 ovarian, above 77.6 µM. In addition, the GI50 in the assay with A549 NSCLC was 3.43 µM; in the assay on HOP-62 NSCLC, 1.86 µM; in the assay on MALME-3M melanoma, 6.6 µM; in the assay with MCF7 breast, 0.368 µM. The TGI with SNB-19 CNS, in the assay with HCT-15 colon, in the assay with UO-31 renal, in the assay on OVCAR-8 ovarian, with SW-620 colon and in the assay on SK-OV-3 ovarian was above 100 µM throughout. Moreover, the TGI is above 100 µM in the assay on A549 NSCLC, 55.7 µM in the assay with HOP-62 NSCLC, 84.5 µM with MALME-3M melanoma and above 36.3 µM with MCF7 breast.
`O=C(O)c1cn(C2CC2)c2cc(N3CCN(C(=O)Nc4nc(-c5ccc(Cl)cc5)cs4)CC3)c(F)cc2c1=O`: the GI50 is 2.74 µM in the assay with SNB-19 CNS; 1.71 µM with HCT-15 colon; 0.596 µM in the assay on UO-31 renal; 1.86 µM in the assay with OVCAR-8 ovarian; 4.7 µM in the assay with SW-620 colon; 2.35 µM with SK-OV-3 ovarian. For the same compound, the GI50 in the assay with A549 NSCLC is 2.71 µM; with HOP-62 NSCLC, 3 µM; with MALME-3M melanoma, 1.47 µM; with MCF7 breast, 2.55 µM. The TGI is above 100 µM in the assay with SNB-19 CNS; above 100 µM with HCT-15 colon; 33.7 µM in the assay on UO-31 renal; 50.9 µM in the assay on OVCAR-8 ovarian; above 100 µM in the assay with SW-620 colon; 8.12 µM in the assay with SK-OV-3 ovarian. The TGI in the assay with A549 NSCLC was above 100 µM; with HOP-62 NSCLC, 96.1 µM; in the assay with MALME-3M melanoma, 5.83 µM; with MCF7 breast, above 100 µM.

The values above are taken from PubChem BioAssay (NCI).
